Measurements from US12715851B2, “4′-substituted analogues of fisetin and their use in the treatment of cancer” (Stellenbosch University, priority 2020, dated 2026).
Entries after “also recorded” stand apart in the source; their conditions may differ.

How the values were obtained:
H1299 cells = test: Western blot of signalling, cell cycle and apoptosis markers; assay type: cell-based, human
Description: (§1) Similarly, in H1299 cells analogue 3a induced a 11.7 to 14.9% cell death (FIG. 4D right) compared to 3.8% in control cells. Analogue 3c (FIG. 4E right) and analogue 3e (FIG. 4F right) induced cell death of 8.2 to 15.1% and 8.8 to 16.6% respectively. For western blot experiments, two concentrations were used, i.e. the IC50 concentration and the next higher concentration utilized for cell proliferation for each cell line.
In H1299 cells (FIG. 4H), the higher concentrations of all three Fisetin analogues decreased the expression of pErk1/2. […]
The decreased expression of these proteins explains the decreased cell proliferation in both A549 and H1299 cells. […] Consistent with A549 data, all three the Fisetin analogues decreased the expression of anti-apoptotic protein Bcl-2 at both the concentrations. In H1299 cells, all the analogues increased cleaved Caspase-3 compared to control untreated cells. Thus, modulation of apoptosis regulatory proteins has caused apoptosis in both A549 and H1299 cells by the tested Fisetin analogues.

[1] = test system: H1299 human lung cancer cells; test: Cell cycle distribution, propidium iodide flow cytometry; assay type: cell-based; conditions: 48 h; for G2/M phase arrest: H1299
Method: (§2) To examine the effect of Fisetin analogues on cell cycle regulation, cells were treated with different concentrations of Fisetin analogues (5, 10 & 20 μM) for 48 h, then stained with propidium iodide and subjected to flow cytometry. All three of the tested Fisetin analogues induced G2/M phase cell cycle arrest in A549 (FIGS. 5A-5C) and H1299 human lung cancer cells (FIGS. 5D-5F).

H1299 cancer cells = test: Apoptosis assay; assay type: cell-based, human; conditions: 48 h
Description: [Worded in the source for another cell line; used here, by the source, with some conditions changed.] (§3) In A549, analogue 3a induced 8.2 and 11.2% apoptosis, analogue 3c induced 13.4 and 17.2% apoptosis, and analogue 3e induced 10.6 to 19.5% apoptosis compared to 4.7% in control cells (FIG. 6A).

A549 [2] = test: Apoptosis assay; assay type: cell-based, human; conditions: 48 h, control cells 4.7%
Description: as §3

H1299 lung cancer cells [3] = test: Trypan blue cell exclusion assay, cell proliferation and death; assay type: cell-based; conditions: Homo sapiens, NCI-H1299, H1299, 48 h, read-out: IC50 concentration
Method: (§4) To evaluate the effect of Fisetin analogues 3a, 3c and 3e on cell proliferation and death of human lung cancer cells, trypan blue cell exclusion assays were performed. A549 and H1299 cancer cells were treated with different concentrations of three selected Fisetin analogues for 48 h. The Fisetin analogues decreased the viability of cells and caused cell death in both the cell lines in a concentration dependent fashion. A549 and H1299 cells were treated with 5, 10 and 20 μM of Fisetin analogues for 48 h. All three analogues decreased cell proliferation and induced cell death.

A549 cells [4] = test: as above; assay type: cell-based; conditions: Homo sapiens, A549, 48 h, read-out: IC50 concentration
Method: as §4

A549 cells [5] = test: Western blot of signalling, cell cycle and apoptosis markers; assay type: cell-based, human; conditions: IC50 concentration and 20 μM
Description: as §1
The expression of pro-oncogenic signalling molecules, which are involved in proliferation and survival of cancer cells, were evaluated.
The effect of the Fisetin analogues on molecular markers of apoptosis was assessed.

A549 [6] = test: Cell cycle distribution, propidium iodide flow cytometry; assay type: cell-based, human; conditions: 10 & 20 μM, 48 h
Method: as §2

[7] = test system: A549 lung cancer cell line; test: MTT cell proliferation assay, cytotoxicity after 48 h treatment; assay type: cell-based, human; conditions: for variation in cytotoxicity with A-ring substitution: A549, 4′-Br analogues; for activity against lung cancer cell lines compared with the parent Fisetin: A549 and/or H1299
Method: These 4′-substituted Fisetin analogues were initially screened for cytotoxicity against the A549 lung cancer cell line following a 48 h treatment period. Cytotoxicity IC50's were quantified using the MTT cell proliferation assay. The compounds were not found to interfere with the assay by causing an increase in background absorbance, no correlation was found between the lipophilicity and cytotoxicity at this position, and the substituent size was also not found to be important.

H1299 lung cancer cells [8] = test: Cytotoxicity / cell viability of H1299 cells; assay type: cell-based, human; conditions: 4′-Br analogues
Description: Analogues were also synthesised to all contain Br in the B-ring 4′-position, and in which the A-ring substitution pattern alone was varied. […] Based on the strong activity of analogue 3c, it was selected together with analogues 3a and 3e for further mechanistic evaluation in lung cancer cells.

[9] = cited from earlier work

O=c1c(O)c(-c2ccc(Br)cc2)oc2ccccc12 [analogue 3a, 4′-Bromo-3-hydroxyflavone]
Phospho-Cdc-2 expression (H1299 cells; IC50 concentration and 10 μM): marginally decreased | Total Cdc-2 (H1299 cells; IC50 concentration and 10 μM): marginally affected by higher concentration | expression of Bax (H1299 cells; IC50 concentration and 10 μM): slightly higher | expression of phospho Akt (H1299 cells; IC50 concentration and 10 μM): did not affect the expression of phospho and total Akt at both the concentrations | expression of phospho-EGFR (H1299 cells; IC50 concentration and 10 μM): lower concentration of analogue 3a did not affect the expression of both phospho and total EGFR; also recorded: higher concentration of analogue 3a significantly decreased the expression of both phospho and total EGFR | expression of total Akt (H1299 cells; IC50 concentration and 10 μM): did not affect the expression of phospho and total Akt at both the concentrations | expression of total EGFR (H1299 cells; IC50 concentration and 10 μM): lower concentration of analogue 3a did not affect the expression of both phospho and total EGFR; also recorded: higher concentration of analogue 3a significantly decreased the expression of both phospho and total EGFR | G2/M phase arrest ([1]; 10 & 20 μM): induced G2/M phase arrest in both the cell lines significantly | apoptosis (H1299 cancer cells; IC50 concentration): 13.2% | apoptosis (H1299 cancer cells; higher concentration 10 μM): 17.8% | apoptosis (A549 [2]; IC50 concentration): 8.2% | apoptosis (A549 [2]; higher concentration 20 μM): 11.2% | IC50 (H1299 lung cancer cells [3]): 4.5 µM | IC50 (A549 cells [4]): 11.9 µM | cleaved caspase-3 (A549 cells [5]): increased the cleavage of caspase-3 significantly | expression of p21 (A549 cells [5]): increased the expression of p21 marginally at both the concentrations | expression of phospho Cdc-2 (A549 cells [5]): slightly decreased the phospho form of Cdc-2 at higher concentration | expression of phospho-Erk1/2 (A549 cells [5]): decreased the expression of phospho-Erk1/2 significantly at both the concentrations | expression of pro-apoptotic protein Bax (A549 cells [5]): slightly increased the expression of pro-apoptotic protein Bax | total Stat-3 expression (A549 cells [5]): not affected | total form of Akt (A549 cells [5]): slightly downregulated | total form of Erk1/2 (A549 cells [5]): not affected | G2/M phase arrest (A549 [6]): induced G2/M phase arrest in both the cell lines significantly

COCOc1ccc2c(=O)c(O)c(-c3ccc(Br)cc3)oc2c1 [analogue 3b, 4′-Bromo-3-hydroxy-7-methoxymethoxyflavone]
variation in cytotoxicity with A-ring substitution [7]: little variation in cytotoxicity | variation in cytotoxicity with A-ring substitution (H1299 lung cancer cells [8]): little variation in cytotoxicity

COCOc1ccc2oc(-c3ccc(Br)cc3)c(O)c(=O)c2c1 [analogue 3d, 4′-Bromo-3-hydroxy-6-methoxymethoxyflavone]
variation in cytotoxicity with A-ring substitution [7]: little variation in cytotoxicity | variation in cytotoxicity with A-ring substitution (H1299 lung cancer cells [8]): little variation in cytotoxicity

O=c1c(O)c(-c2ccc(Br)cc2)oc2ccc(O)cc12 [analogue 3e, 4′-Bromo-3,6-dihydroxyflavone]
Phospho-Cdc-2 expression (H1299 cells; IC50 concentration and 10 μM): both concentrations of analogue 3e decreased the expression of phospho-Cdc-2 | Total Cdc-2 (H1299 cells; IC50 concentration and 10 μM): no effect | expression of Bax (H1299 cells; IC50 concentration and 10 μM): increased the expression of pro-apoptotic protein Bax | expression of phospho Akt (H1299 cells; IC50 concentration and 10 μM): significantly decrease the phospho Akt | expression of phospho-EGFR (H1299 cells; IC50 concentration and 10 μM): significantly decreased the expression of phospho-EGFR | expression of total Akt (H1299 cells; IC50 concentration and 10 μM): did not affect the total Akt | expression of total EGFR (H1299 cells; IC50 concentration and 10 μM): did not affect the expression levels of total EGFR | expression of total Erk1/2 (H1299 cells; IC50 concentration and 10 μM): decreased the expression of total Erk1/2 significantly | expression of total Stat-3 (H1299 cells; higher concentration (10 μM)): decreased the expression of total Stat-3 at higher concentrations | S-phase arrest ([1]; 20 μM, cell line not given): induced S-phase arrest | G2/M phase arrest ([1]; 5 μM): induced G2/M phase arrest | G2/M phase arrest ([1]; 10 & 20 μM): induced G2/M phase arrest in both the cell lines significantly | apoptosis (H1299 cancer cells; IC50 concentration): 12.1% | apoptosis (H1299 cancer cells; higher concentration 10 μM): 19.5% | apoptosis (A549 [2]; IC50 concentration): 10.6% | apoptosis (A549 [2]; higher concentration 20 μM): 19.5% | variation in cytotoxicity with A-ring substitution [7]: little variation in cytotoxicity | IC50 (H1299 lung cancer cells [3]): 3.1 µM | IC50 (A549 cells [4]): 12.3 µM | cleaved caspase-3 (A549 cells [5]): both the concentrations of analogue 3e increased the cleaved caspase-3 marginally | expression of p21 (A549 cells [5]): increased the p21 expression to a much higher level at both the concentrations | expression of phospho Cdc-2 (A549 cells [5]): IC50 concentration decreased the expression to some extent; also recorded: the higher concentrations decreased the phospho-Cdc-2 expression significantly | expression of phospho-Erk1/2 (A549 cells [5]): decreased the expression of phospho-Erk1/2 significantly at both the concentrations | expression of phospho-Stat-3 (A549 cells [5]): completely abolished the expression of p-Stat-3 | expression of pro-apoptotic protein Bax (A549 cells [5]): increased the expression of Bax with much higher potential | total Stat-3 expression (A549 cells [5]): significantly decreased the expression of total Stat-3 | total form of Akt (A549 cells [5]): decreased the expression of total Akt at both the concentrations | total form of Erk1/2 (A549 cells [5]): not affected | variation in cytotoxicity with A-ring substitution (H1299 lung cancer cells [8]): little variation in cytotoxicity | G2/M phase arrest (A549 [6]): induced G2/M phase arrest in both the cell lines significantly

O=c1c(O)c(-c2ccc(Br)cc2)oc2cccc(O)c12 [analogue 3f, 4′-Bromo-3,5-dihydroxyflavone]
variation in cytotoxicity with A-ring substitution [7]: little variation in cytotoxicity | variation in cytotoxicity with A-ring substitution (H1299 lung cancer cells [8]): little variation in cytotoxicity

O=c1c(O)c(-c2ccc(Cl)cc2)oc2cc(O)ccc12 [analogue 3g, 4′-Chloro-3,7-dihydroxyflavone]
cytotoxicity, in words ([7]; A549, MTT, 48 h): particularly active | activity against lung cancer cell lines compared with the parent Fisetin [7]: substantially more active

COc1ccc(-c2oc3cc(O)ccc3c(=O)c2O)cc1 [analogue 3m, 4′-Methoxy-3,7-dihydroxyflavone]
activity compared to that predicted by the para-Hammett constant ([7]; A549, MTT, 48 h): enhanced activity compared to that predicted by the para-Hammett constant

O=c1c(O)c(-c2ccc(C(F)(F)F)cc2)oc2cc(O)ccc12 [analogue 3n, 4′-Trifluoromethyl-3,7-dihydroxyflavone]
cytotoxicity, in words ([7]; A549, MTT, 48 h): particularly active | activity against lung cancer cell lines compared with the parent Fisetin [7]: substantially more active

CS(=O)(=O)c1ccc(-c2oc3cc(O)ccc3c(=O)c2O)cc1 [analogue 3p, 4′-Methylsulfone-3,7-dihydroxyflavone]
cytotoxicity, in words ([7]; A549, MTT, 48 h): particularly active | activity against lung cancer cell lines compared with the parent Fisetin [7]: substantially more active

O=c1c(O)c(-c2ccc(O)c(O)c2)oc2cc(O)cc(O)c12 [quercetin]
pKa of the 4′-hydroxyl group [9]: ~ 9.4 | pKa of the 7-hydroxyl group ([9]; most acidic position): ~ 7.3
